Source: patent publication US20050222259A1, “Methods of activating PPAR-alpha nuclear receptors in mammals” (priority 2004, published 2005)

Experiment: oral application of conjugated fatty acids: appetite, satiety and food intake
Format: in vivo
Settings: for appetite-reducing effect compared with other CLA isomers and non-conjugated linoleic acid: comparison of isomers

| Compound | effect on appetite, satiety and food intake (oral application) | appetite-reducing effect compared with other CLA isomers and non-conjugated linoleic acid | appetite-reducing effect compared with other CLA isomers and non-conjugated linoleic acid (listed as cis-9,trans-11 isomer of conjugated linoleic acid) |
| --- | --- | --- | --- |
| conjugated linoleic acid [CLA] | reduction of appetite | – | – |
| CCCCCC/C=C/C=C\CCCCCCCC(=O)O (single isomer, unassigned) [cis-9,trans-11 CLA-isomer, cis-9,trans-11 isomer of conjugated linoleic acid] | – | most efficacious in inhibiting appetite | more pronounced |
